In publication PMC11571108, “Targeting PfCLK3 with Covalent Inhibitors: A Novel Strategy for Malaria Treatment” (Journal of Medicinal Chemistry, 2024):

How the values were obtained:
[1] = biological target: T1, recombinant full-length PfCLK3 (Plasmodium falciparum, UniProt Q8IIL5); assay: TR-FRET protein kinase assay; assay type: biochemical; conditions: Apparent pIC50 (PfCLK3), 15 min preincubation, 2 h incubation
T1 sequence (Q8IIL5 1-699): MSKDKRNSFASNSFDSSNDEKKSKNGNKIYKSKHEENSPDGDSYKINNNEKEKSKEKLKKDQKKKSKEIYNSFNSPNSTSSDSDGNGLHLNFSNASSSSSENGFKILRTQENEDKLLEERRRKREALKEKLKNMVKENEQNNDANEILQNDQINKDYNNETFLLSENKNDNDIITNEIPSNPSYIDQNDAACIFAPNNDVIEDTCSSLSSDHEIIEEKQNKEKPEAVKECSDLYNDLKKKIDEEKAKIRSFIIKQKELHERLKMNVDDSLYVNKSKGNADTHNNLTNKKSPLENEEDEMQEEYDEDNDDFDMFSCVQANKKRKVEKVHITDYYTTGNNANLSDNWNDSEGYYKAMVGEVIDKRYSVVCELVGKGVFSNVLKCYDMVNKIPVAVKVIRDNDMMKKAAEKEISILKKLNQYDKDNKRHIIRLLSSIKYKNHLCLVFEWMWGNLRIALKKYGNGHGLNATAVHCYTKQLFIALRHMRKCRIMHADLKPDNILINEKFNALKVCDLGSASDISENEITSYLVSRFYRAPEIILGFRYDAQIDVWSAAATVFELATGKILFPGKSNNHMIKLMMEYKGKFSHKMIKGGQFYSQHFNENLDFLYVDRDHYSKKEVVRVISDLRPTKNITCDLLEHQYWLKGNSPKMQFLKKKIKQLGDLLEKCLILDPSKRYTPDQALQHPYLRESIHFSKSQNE
Description: To a black 384-well plate was added 2.5 μL of each concentration of inhibitor serially diluted 1 in 3, 11 times from a 40 μM (4×) top concentration normalized to 4% DMSO, and 5 μL of 50 nM (2×) recombinant PfCLK3. Both were dissolved in kinase buffer (50 mM HEPES 7.4, 1 mM EGTA, 1 mM MgCl2, 0.01% Tween, and 1 mM TCEP). […] 5 μL of detection mix (30 mM EDTA, 3 nM AntiMBP in 1× PerkinElmer Lance detection buffer) was added to quench the kinase reaction, and plates were incubated at room temperature in the dark for 1 h.

[2] = biological target: Fyn(h) (Homo sapiens, UniProt P06241); assay: biochemical
Description: (§1) Compounds were evaluated using Eurofins Discovery’s KinaseProfiler Diversity Panel of 58 representative kinases. KinaseProfiler is a radiometric assay using [γ-^33P]-ATP to measure the phosphorylation of individual kinase substrates. A representative protocol for Abl is given below. Further details can be found by visiting the Eurofins Discovery Web site.
(§2) The reaction is initiated by the addition of the Mg/ATP mix. After incubation for 40 min at room temperature, the reaction is stopped by the addition of phosphoric acid to a concentration of 0.5%.

[3] = biological target: IGF-1R(h) (Homo sapiens, UniProt P08069); assay: biochemical
Description: as §1, §2

[4] = biological target: KDR(h) (Homo sapiens, UniProt P35968); assay: biochemical
Description: as §1, §2

[5] = biological target: Lyn(h) (Homo sapiens, UniProt P07948); assay: biochemical
Description: as §1, §2

[6] = biological target: MAPKAP-K2(h) (Homo sapiens, UniProt P49137); assay: biochemical
Description: as §1, §2

[7] = biological target: MEK1(h) (Homo sapiens, UniProt Q02750); assay: biochemical
Description: as §1, §2

[8] = biological target: MLK1(h) (Homo sapiens, UniProt P80192); assay: biochemical
Description: as §1, §2

[9] = biological target: MST1(h) (Homo sapiens, UniProt Q13043); assay: biochemical
Description: as §1, §2

[10] = biological target: Mnk2(h) (Homo sapiens, UniProt Q9HBH9); assay: biochemical
Description: as §1, §2

[11] = biological target: NEK2(h) (Homo sapiens, UniProt P51955); assay: biochemical
Description: as §1, §2

[12] = biological target: PAK2(h) (Homo sapiens, UniProt Q13177); assay: biochemical
Description: as §1, §2

[13] = biological target: PKCθ(h) (Homo sapiens, UniProt Q04759); assay: biochemical
Description: as §1, §2

[14] = biological target: PKG1α(h) (Homo sapiens, UniProt Q13976); assay: biochemical
Description: as §1, §2

[15] = biological target: PRAK(h) (Homo sapiens, UniProt Q8IW41); assay: biochemical
Description: as §1, §2

[16] = biological target: Plk3(h) (Homo sapiens, UniProt Q9H4B4); assay: biochemical
Description: as §1, §2

[17] = biological target: SAPK2a(h) (Homo sapiens, UniProt Q16539); assay: biochemical
Description: as §1, §2

[18] = biological target: SRPK1(h) (Homo sapiens, UniProt Q96SB4); assay: biochemical
Description: as §1, §2

[19] = biological target: eEF-2K(h) (Homo sapiens, UniProt O00418); assay: biochemical
Description: as §1, §2

[20] = biological target: mTOR(h) (Homo sapiens, UniProt P42345); assay: biochemical
Description: as §1, §2

[21] = biological target: p70S6K(h) (Homo sapiens, UniProt P23443); assay: biochemical
Description: as §1, §2

[22] = physchem; conditions: pH 7.5, GSH t1/2, 37 °C, 10:1 ratio GSH:compound
[23] = biological target: Abl(h) (Homo sapiens, UniProt P00519); assay: biochemical
[24] = biological target: ALK(h) (Homo sapiens, UniProt Q9UM73); assay: biochemical
[25] = biological target: AMPKα1(h) (Homo sapiens, UniProt Q13131); assay: biochemical
[26] = biological target: CDK7/cyclinH/MAT1(h) (Homo sapiens, UniProt P50613); assay: biochemical
[27] = biological target: CK2α2(h) (Homo sapiens, UniProt P19784); assay: biochemical
Sequence of CK2α2(h) (P19784 whole entry): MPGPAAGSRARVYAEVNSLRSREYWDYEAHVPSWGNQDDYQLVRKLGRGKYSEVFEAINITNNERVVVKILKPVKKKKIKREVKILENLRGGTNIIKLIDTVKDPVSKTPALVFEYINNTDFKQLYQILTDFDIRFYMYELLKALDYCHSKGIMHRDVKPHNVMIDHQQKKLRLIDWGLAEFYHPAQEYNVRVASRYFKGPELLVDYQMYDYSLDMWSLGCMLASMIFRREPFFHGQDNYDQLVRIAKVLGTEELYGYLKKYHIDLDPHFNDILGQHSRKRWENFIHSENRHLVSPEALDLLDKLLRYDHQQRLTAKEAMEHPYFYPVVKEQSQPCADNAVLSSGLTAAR

Sequence of IGF-1R(h) (P08069 31-1367): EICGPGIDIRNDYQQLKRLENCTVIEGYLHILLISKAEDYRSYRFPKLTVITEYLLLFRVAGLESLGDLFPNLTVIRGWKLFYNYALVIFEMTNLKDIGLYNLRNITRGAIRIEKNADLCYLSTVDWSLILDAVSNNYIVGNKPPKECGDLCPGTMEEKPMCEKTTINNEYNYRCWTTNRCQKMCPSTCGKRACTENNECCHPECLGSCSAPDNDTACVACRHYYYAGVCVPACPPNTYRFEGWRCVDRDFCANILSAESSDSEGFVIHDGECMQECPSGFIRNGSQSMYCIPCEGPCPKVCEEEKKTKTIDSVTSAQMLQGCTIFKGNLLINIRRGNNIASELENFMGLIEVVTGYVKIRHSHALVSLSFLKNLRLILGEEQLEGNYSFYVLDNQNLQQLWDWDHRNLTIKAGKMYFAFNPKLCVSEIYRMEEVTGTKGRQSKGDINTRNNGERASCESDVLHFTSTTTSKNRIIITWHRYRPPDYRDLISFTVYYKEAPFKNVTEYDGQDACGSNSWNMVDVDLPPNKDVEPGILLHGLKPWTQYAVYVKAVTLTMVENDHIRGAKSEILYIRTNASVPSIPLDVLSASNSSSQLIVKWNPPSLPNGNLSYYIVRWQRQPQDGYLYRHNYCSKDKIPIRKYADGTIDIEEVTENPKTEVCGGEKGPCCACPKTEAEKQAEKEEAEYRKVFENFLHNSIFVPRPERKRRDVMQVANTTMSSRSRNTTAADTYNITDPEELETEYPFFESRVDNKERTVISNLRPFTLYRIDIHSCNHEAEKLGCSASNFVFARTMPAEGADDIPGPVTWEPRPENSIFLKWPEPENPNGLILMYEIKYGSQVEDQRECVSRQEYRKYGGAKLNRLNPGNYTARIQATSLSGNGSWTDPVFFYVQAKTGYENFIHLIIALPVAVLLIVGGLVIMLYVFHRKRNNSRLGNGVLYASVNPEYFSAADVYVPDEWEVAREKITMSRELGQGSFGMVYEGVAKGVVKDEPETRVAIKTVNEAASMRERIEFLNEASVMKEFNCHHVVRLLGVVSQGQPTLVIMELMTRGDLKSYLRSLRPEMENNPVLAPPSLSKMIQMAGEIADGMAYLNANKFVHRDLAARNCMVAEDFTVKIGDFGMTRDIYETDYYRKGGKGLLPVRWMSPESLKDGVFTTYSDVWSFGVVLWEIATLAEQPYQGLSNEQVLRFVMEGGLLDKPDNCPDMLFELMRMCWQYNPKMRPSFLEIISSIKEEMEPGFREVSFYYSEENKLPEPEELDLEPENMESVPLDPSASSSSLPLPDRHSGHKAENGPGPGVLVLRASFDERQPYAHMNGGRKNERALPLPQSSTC
Sequence of KDR(h) (P35968 20-1356): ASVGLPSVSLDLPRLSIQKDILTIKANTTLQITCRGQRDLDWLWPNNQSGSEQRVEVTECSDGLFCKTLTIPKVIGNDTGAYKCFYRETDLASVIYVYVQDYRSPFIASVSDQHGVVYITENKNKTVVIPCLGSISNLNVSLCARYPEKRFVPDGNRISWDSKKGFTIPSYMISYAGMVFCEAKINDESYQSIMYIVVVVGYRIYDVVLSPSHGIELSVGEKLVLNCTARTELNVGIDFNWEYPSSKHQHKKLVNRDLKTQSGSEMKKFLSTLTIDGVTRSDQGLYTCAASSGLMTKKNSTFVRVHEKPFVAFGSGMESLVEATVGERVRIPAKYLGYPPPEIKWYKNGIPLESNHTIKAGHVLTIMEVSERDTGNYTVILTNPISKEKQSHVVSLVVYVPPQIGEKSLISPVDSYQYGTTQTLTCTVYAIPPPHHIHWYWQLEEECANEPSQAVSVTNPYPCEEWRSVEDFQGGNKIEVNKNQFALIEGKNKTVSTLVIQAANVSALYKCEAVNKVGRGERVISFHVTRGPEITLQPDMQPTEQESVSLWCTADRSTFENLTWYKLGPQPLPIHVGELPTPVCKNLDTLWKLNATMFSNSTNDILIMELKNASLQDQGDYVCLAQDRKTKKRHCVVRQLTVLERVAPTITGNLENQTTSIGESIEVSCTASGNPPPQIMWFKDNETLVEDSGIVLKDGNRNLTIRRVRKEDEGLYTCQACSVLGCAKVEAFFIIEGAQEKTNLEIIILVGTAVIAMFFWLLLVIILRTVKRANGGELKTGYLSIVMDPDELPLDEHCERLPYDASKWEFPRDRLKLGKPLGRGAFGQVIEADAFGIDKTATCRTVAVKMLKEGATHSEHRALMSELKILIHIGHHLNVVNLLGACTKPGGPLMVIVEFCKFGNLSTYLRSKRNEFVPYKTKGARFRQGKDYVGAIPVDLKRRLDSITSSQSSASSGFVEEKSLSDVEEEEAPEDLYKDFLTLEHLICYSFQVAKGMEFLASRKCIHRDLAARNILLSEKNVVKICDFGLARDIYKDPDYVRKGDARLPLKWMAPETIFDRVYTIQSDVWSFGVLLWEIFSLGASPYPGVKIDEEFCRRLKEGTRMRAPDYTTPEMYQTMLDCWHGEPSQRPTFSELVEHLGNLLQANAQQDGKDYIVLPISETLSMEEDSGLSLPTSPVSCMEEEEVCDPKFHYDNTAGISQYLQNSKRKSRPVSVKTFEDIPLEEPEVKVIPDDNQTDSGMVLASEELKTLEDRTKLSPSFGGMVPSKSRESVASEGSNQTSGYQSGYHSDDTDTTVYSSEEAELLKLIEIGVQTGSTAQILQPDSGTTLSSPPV
Sequence of MEK1(h) (Q02750 whole entry): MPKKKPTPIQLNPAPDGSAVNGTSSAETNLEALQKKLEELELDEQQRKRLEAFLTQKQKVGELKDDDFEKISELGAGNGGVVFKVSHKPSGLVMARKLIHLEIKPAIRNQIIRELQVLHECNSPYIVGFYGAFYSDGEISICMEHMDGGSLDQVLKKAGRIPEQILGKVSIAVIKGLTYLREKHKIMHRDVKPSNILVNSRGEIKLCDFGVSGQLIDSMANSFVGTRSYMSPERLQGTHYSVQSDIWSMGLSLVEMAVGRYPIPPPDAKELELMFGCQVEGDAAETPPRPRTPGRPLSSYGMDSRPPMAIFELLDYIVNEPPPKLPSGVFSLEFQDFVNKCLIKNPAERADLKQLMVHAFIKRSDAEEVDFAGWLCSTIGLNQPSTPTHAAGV
Sequence of PKCθ(h) (Q04759 whole entry): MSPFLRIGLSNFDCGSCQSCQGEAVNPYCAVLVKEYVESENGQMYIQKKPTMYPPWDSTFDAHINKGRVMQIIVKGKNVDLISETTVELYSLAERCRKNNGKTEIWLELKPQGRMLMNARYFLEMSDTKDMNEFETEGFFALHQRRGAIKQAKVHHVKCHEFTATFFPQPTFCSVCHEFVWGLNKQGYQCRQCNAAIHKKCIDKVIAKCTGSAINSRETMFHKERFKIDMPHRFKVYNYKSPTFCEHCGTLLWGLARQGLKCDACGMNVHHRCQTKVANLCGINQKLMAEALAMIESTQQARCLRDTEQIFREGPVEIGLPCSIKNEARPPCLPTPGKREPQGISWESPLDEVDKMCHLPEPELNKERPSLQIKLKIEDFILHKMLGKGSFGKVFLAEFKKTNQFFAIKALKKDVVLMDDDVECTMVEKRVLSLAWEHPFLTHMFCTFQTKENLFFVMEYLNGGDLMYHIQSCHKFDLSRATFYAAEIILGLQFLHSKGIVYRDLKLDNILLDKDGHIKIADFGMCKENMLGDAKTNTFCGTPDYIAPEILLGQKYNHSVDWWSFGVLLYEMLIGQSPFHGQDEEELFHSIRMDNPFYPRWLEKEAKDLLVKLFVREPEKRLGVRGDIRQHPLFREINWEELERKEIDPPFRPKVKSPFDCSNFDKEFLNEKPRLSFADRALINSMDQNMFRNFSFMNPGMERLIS
Sequence of p70S6K(h) (P23443 whole entry): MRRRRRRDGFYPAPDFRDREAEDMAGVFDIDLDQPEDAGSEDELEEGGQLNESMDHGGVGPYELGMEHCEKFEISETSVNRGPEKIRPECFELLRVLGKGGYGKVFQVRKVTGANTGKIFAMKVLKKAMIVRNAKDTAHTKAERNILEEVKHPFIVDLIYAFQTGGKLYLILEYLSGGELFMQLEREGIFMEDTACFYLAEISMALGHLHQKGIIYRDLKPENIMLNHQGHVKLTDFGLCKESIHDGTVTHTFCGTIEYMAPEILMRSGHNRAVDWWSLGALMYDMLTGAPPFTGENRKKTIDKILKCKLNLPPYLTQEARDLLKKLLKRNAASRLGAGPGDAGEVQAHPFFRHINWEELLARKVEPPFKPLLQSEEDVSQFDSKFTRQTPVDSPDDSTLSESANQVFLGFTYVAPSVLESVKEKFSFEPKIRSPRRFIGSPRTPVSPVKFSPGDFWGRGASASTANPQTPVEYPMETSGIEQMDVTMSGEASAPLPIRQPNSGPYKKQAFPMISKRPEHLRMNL
Sequence of SAPK2a(h) (Q16539 whole entry): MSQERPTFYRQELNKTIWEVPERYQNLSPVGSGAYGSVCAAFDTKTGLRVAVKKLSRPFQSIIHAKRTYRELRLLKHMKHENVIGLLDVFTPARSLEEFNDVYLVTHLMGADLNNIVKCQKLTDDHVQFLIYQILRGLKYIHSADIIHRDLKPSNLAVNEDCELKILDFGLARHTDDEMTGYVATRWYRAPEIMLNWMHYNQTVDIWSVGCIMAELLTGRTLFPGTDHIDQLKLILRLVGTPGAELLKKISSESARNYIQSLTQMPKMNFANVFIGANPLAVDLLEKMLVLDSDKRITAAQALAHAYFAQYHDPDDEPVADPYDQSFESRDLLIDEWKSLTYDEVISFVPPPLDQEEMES

With `CCN(CC)Cc1ccc(OC)c(-c2cc3c(-c4ccc(C(=O)O)c(C(C)C)c4)ccnc3[nH]2)c1` [Compound 1, TCMDC-135051] as the molecule, how does the IC50 ([1]; [ATP] = 500 μM) read?
The IC50 was 0.0871 µM.

And the IC50 ([1]; [ATP] = 3 mM)?
The IC50 was 0.447 µM.

What about the IC50 ([1]; [ATP] = Km (5 μM)) of the same molecule?
The IC50 was 0.00776 µM.

And the remaining activity at 1 µM [2]?
Its remaining activity at 1 µM is 49%.

And the remaining activity at 1 µM [3]?
Its remaining activity at 1 µM is 94%.

And the remaining activity at 1 µM [4]?
The remaining activity at 1 µM was 61%.

And the remaining activity at 1 µM [5]?
Its remaining activity at 1 µM is 28%.

What about the remaining activity at 1 µM [6] of the same molecule?
Its remaining activity at 1 µM is 94%.

And the remaining activity at 1 µM [7]?
The remaining activity at 1 µM was 100%.

What about the remaining activity at 1 µM [8] of the same molecule?
Its remaining activity at 1 µM is 92%.

And the remaining activity at 1 µM [9]?
The remaining activity at 1 µM was 84%.

What about the remaining activity at 1 µM [10] of the same molecule?
The remaining activity at 1 µM was 38%.

And the remaining activity at 1 µM [11]?
Its remaining activity at 1 µM is 105%.

And the remaining activity at 1 µM [12]?
Its remaining activity at 1 µM is 110%.

What about the remaining activity at 1 µM [13] of the same molecule?
The remaining activity at 1 µM was 108%.

And the remaining activity at 1 µM [14]?
The remaining activity at 1 µM was 105%.

What about the remaining activity at 1 µM [15] of the same molecule?
Its remaining activity at 1 µM is 74%.

What about the remaining activity at 1 µM [16] of the same molecule?
The remaining activity at 1 µM was 100%.

And the remaining activity at 1 µM [17]?
Its remaining activity at 1 µM is 105%.

What about the remaining activity at 1 µM [18] of the same molecule?
Its remaining activity at 1 µM is 105%.

And the remaining activity at 1 µM [19]?
The remaining activity at 1 µM was 100%.

What about the remaining activity at 1 µM [20] of the same molecule?
Its remaining activity at 1 µM is 100%.

And the remaining activity at 1 µM [21]?
Its remaining activity at 1 µM is 100%.

And the half-life at 1 mM [22]?
Its half-life at 1 mM is over 72 h.

And the remaining activity at 1 µM [23]?
The remaining activity at 1 µM was 68%.

What about the remaining activity at 1 µM [24] of the same molecule?
The remaining activity at 1 µM was 30%.

And the remaining activity at 1 µM [25]?
The remaining activity at 1 µM was 46%.

And the remaining activity at 1 µM [26]?
Its remaining activity at 1 µM is 102%.

And the remaining activity at 1 µM [27]?
The remaining activity at 1 µM was 39%.
